From patent publication US8410310B2, “Trypsin-like serine protease inhibitors, and their preparation and use” (The Medicines Company (Leipzig) GmbH, priority 2006, dated 2013)

Assays:
[1] = tested on: t-PA-induced lysis of whole blood clots; assay: Whole blood fibrinolysis assay (ROTEM, EXTEM with t-PA); type: cell-based, human; conditions: human whole blood, t-PA 100 U/mL, Ly60; read-out: concentration resulting in 50% suppression of clot lysis (IC50, median [25%; 75% percentile])
Description: (§1) Venous blood was withdrawn from the antecubital vein from healthy volunteers after written informed consent in accordance with local and federal guidelines with approval of the local review board (Ethikkommission, Klinikum Charité, Sauerbruchweg 5, 10117 Berlin). The blood was mixed with 0.11 mol/L sodium citrate (1:10). For ROTEM® analysis, whole citrated blood was used within 8 h after collection. Platelet-rich plasma (PRP) was prepared from citrated blood by centrifugation at 330×g for 10 min at room temperature, platelet-poor plasma (PPP) was collected following centrifugation at 1220×g for 12 min. The PRP was then adjusted to 3×10^8 platelets per mL using the autologous PPP. PRP was maintained at room temperature for less than 4 h before analysis. The remaining PPP was subjected to a high-speed centrifugation at 40,000×g for 30 min at 4° C. to remove any particulate material and was then stored at −70° C. until use.
(§2) The antifibrinolytic activity of Compound No. 3 in comparison to aprotinin and tranexamic acid was investigated in plasma and whole blood assays. In both assays, tissue factor was added to initiate rapid clot formation via the extrinsic pathway which produces a clot that remains stable for several hours under normal conditions. Supplementation of plasma or whole blood with tissue-type plasminogen activator (t-PA) before stimulation results in activation of endogenous plasminogen and thus fibrinolysis while the initial clot formation is not impaired. […] A final concentration of 50 U/mL and 100 U/mL in plasma and whole blood, respectively, was chosen to achieve complete lysis within about 60 min. In the presence of antifibrinolytics, clot lysis is delayed in a concentration-dependent manner.
Fibrinolysis in whole blood was studied with rotational thromboelastometry (Luddington, Clin. Lab. Haematol. 27: 81-90, 2005) using a computerized, multi-channel ROTEM® instrument (Pentapharm, Munich, Germany) (Ganter et al., Anesth. Analg. 106: 1366-75, 2008). Activation of test samples accelerated the measurement process and enhanced reproducibility compared with conventional thromboelastography. To allow observation of fibrinolysis, ROTEM® analysis with tissue factor activation (EXTEM) was modified through addition of t-PA (Nielsen et al. Blood Coagul. Fibrinolysis 17: 75-81, 2006). Citrated blood was pre-incubated at 37° C. for 5 min with test compound or saline before tissue factor, CaCl2 and t-PA (100 U/mL final concentration) were added to start the reaction. Fibrinolysis was determined by measuring loss of clot strength with time and was recorded as Ly60 (percentage reduction of the maximum amplitude at 60 min after the onset of clotting). In control samples without inhibitor, clots were lysed completely within 60 min, such that Ly60 was above 90%. By plotting Ly60 versus test compound concentration, IC50 values for each compound were calculated.

[2] = tested on: t-PA-induced fibrinolysis in plasma; assay: Plasma fibrinolysis assay (turbidometric); type: biochemical; conditions: human plasma, t-PA 50 U/mL; read-out: IC50 on t-PA-induced fibrinolysis in plasma (median [25%; 75% percentile])
Description: as §1, §2
Inhibition of fibrinolysis in plasma was examined using a turbidometric method in 96-well flat-bottom plates. The time course of clot formation and lysis, reflected by an initial increase and subsequent decrease in turbidity, was recorded by continuously measuring the optical density (OD) at 405 nm. Similar models have been used widely to study the clot lysis process in human plasma (Kim et al., J. Thromb. Haemost. 5: 1250-6, 2007) as well as its inhibition by antifibrinolytic drugs (Sperzel et al., J. Thromb. Haemost. 5: 2113-8, 2007). Frozen and thawed human plasma (PPP) was pre-incubated with test compound or vehicle (Owren's Veronal buffer) for 5 min at 37° C. […] OD at 405 nm was monitored every 45 s for 180 min at 37° C. with a microplate reader (POLARstar OPTIMA, BMG Labtech, Offenburg, Germany). Fibrinolysis was quantified as the relative decrease in OD at 45 min after the maximum OD was reached. […]

Xa = Xa (Homo sapiens, UniProt P00742); assay: Determination of inhibition constants for Xa; type: biochemical
Xa, sequence (P00742 235-488 limits assumed): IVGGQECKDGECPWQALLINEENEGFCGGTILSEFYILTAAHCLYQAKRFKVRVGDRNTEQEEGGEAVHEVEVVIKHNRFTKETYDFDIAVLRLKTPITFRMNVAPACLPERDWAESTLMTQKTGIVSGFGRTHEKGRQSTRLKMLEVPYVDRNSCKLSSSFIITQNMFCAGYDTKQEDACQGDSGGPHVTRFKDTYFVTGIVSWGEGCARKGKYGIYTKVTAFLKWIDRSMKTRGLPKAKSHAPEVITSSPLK
Xa, sequence (P00742 41-179 limits assumed): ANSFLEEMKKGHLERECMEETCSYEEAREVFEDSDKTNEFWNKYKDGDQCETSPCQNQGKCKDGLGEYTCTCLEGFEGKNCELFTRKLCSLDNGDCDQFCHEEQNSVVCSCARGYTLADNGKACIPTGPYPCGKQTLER
Description: (§3) The inhibitory effect for the individual enzymes was determined in analogy to a previously disclosed method (Stürzebecher et al., 1997).
(§4) For zero order kinetics, the reaction was stopped after 20 min by adding 25 μl of acetic acid (50% v/v), and the absorption at 405 nm was determined using a Microplate Reader (Multiscan Ascent, from Thermo). In the case of pseudo-first order kinetics, the reaction rates in the equilibrium state were ascertained by recording the reaction kinetics. The Ki values were ascertained either in accordance with Dixon (1953) by linear regression using a computer program or by parameter fitting in accordance with the rate equation for competitive inhibition. The Ki values are the average of at least two determinations.

Thrombin = Thrombin (Homo sapiens, UniProt P00734); assay: Determination of inhibition constants for thrombin; type: biochemical
Description: as §3, §4

plasmin = plasmin (Homo sapiens, UniProt P00747); assay: Determination of inhibition constants for plasmin; type: biochemical; parameters: purchased Calbiochem; conditions: 25° C., substrate Chromozym PL, pH 8.0; read-out: Plasmin [Ki]
plasmin, sequence (P00747 581-810 limits assumed): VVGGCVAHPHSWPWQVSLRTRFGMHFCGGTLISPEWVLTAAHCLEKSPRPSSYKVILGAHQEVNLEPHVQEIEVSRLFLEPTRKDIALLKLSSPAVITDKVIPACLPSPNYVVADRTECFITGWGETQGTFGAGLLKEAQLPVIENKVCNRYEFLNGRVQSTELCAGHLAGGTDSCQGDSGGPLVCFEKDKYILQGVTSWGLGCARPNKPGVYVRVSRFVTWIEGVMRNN
plasmin, sequence (P00747 97-580 partner limits assumed): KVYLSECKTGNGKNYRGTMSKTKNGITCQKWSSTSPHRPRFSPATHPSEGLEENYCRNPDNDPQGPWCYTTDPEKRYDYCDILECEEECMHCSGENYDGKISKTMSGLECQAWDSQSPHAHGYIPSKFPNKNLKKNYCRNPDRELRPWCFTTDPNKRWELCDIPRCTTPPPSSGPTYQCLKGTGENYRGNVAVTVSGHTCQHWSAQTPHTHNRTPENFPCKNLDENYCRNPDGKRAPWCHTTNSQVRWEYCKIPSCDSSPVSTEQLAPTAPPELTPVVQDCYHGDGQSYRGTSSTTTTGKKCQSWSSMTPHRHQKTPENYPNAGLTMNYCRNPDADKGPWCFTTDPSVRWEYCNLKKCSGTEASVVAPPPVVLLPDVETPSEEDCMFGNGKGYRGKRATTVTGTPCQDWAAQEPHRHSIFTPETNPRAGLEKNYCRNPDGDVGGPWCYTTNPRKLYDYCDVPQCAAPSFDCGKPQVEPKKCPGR
Description: as §3, §4

plasma kallikrein = plasma kallikrein (Homo sapiens, UniProt P03952); assay: Determination of inhibition constants for PK; type: biochemical; parameters: purchased Enzyme Research Lab. / Enzyme Research Laboratories; conditions: 25° C., substrate S2302, pH 8.0; read-out: PK [Ki]
plasma kallikrein, sequence (P03952 391-638 limits assumed): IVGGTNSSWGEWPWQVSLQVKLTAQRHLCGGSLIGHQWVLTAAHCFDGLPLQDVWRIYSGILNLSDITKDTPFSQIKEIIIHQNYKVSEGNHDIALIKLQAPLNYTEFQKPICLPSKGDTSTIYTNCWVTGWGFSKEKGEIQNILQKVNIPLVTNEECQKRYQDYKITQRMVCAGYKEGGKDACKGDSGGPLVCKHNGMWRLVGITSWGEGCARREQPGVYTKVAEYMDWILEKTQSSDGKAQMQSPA
plasma kallikrein, sequence (P03952 20-390 partner limits assumed): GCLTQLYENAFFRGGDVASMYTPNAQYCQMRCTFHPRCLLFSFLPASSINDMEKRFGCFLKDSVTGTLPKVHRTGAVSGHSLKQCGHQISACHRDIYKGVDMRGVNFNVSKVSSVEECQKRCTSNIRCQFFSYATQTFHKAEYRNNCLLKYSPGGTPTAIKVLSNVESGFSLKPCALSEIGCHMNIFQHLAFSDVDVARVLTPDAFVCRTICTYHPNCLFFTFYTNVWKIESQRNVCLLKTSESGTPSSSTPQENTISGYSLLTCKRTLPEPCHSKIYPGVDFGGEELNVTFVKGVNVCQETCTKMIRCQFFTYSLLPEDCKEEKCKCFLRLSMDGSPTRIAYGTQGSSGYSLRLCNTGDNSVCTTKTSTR
Description: as §3, §4

IC50 [1]	IC50 [2]	Ki (Xa)	Ki (Thrombin)	Ki (plasmin)	Ki (plasma kallikrein)	SMILES
2.75 µM	4.22 µM	–	–	–	–	NC[C@H]1CC[C@H](C(=O)O)CC1 [tranexamic acid, trans-4-(aminomethyl)cyclo-hexanecarboxylic acid]
–	–	< 0.01 µM	< 0.01 µM	< 0.01 µM	< 0.01 µM	N=C(N)c1ccc(CNC(=O)[C@H](CCc2ccccc2)NC(=O)[C@@H](CCCc2cccnc2)NS(=O)(=O)Cc2ccccc2)cc1 [compound 51]
